{"source": "patent US9718835B2", "about": "(China Medical University Hospital, priority 2013, dated 2017)", "key": {"[1]": {"tested_on": "KB (epidermoid carcinoma of the nasopharynx)", "experiment": "Sulforhodamine B cytotoxicity assay, KB", "type": "cell-based, human", "settings": "Table 1; 72 h; average ± SD; read-out: IC50 KB", "procedure": "The 12 novel 1-derivatives 9a-l were evaluated for in vitro antiproliferative activity against four human tumor cell lines, KB (nasopharyngeal), A-549 (lung), DU-145 (prostate), and KBvin (MDR KB subline), by using a sulforhodamine B colorimetric assay with triplicate experiments.^30 Compounds 1 and 3 were used as controls.\nThe human tumor cell lines used in this manuscript were A-549 (lung carcinoma), MDA-MB-231 (triple-negative breast cancer), DU-145 (hormone-insensitive prostate cancer), KB (originally isolated from epidermoid carcinoma of the nasopharynx), KBvin (vincristine-resistant KB subline), and HCT116 (colorectal adenocarcinoma). These cell lines were obtained from the Lineberger Comprehensive Cancer Center (UNC-CH) or from ATCC (Manassas, Va.), except KBvin, which was a generous gift of Professor Y.-C. Cheng (Yale University). All cell lines were maintained and assayed in RPMI-1640 medium containing 2 mM L-glutamine and 25 mM HEPES (HyClone), supplemented with 10% heat-inactivated fetal bovine serum (HyClone), 100 μg/mL streptomycin, 100 IU/mL penicillin, and 0.25 μg/mL amphotericin B (Cellgro) in a humidified atmosphere containing 5% CO2 in air. Compound stock solutions were prepared at 10 mM in DMSO and diluted with culture medium with the final DMSO concentration ≦0.01% (v/v), a concentration without effect on cell growth. The 4-6×10^3 cells/well were cultured for 72 h with various concentrations of test compounds in 96-well plate at 37° C. […] Each assay was performed in triplicate with duplicated samples."}, "ATM": {"tested_on": "ATM", "experiment": "Western blot analysis of ATM phosphorylation (DNA damage response)", "type": "cell-based, human", "settings": "after 0.5 h treatment", "procedure": "Activation of ATM kinase was confirmed by detecting the phosphorylation of downstream effectors, Chk1, Chk2, and histone H2AX.\n(§1) Cells were harvested in PBS containing proteinase inhibitors and phosphatase inhibitors, and sonicated. Whole cell lysates were separated by SDS-PAGE and transferred to Immobilon P membrane (EMD Millipore). The membrane was incubated with primary antibody followed by labeling with horseradish peroxidase (HRP)-conjugated secondary antibody (EMD Millipore). Chemilluminence substrate kit (EMD Millipore) was used for detection of membrane-bound HRP, and visualized by the Luminsence image analyzer, LAS4000 (Fuji Photo Film Co., Japan).\nAntibodies to caspase-3, caspase-8, caspase-9, PARP, phospho-ATM (Ser1981), ATM, phospho-ATR (Ser428), phospho-Chk1 (Ser345), phospho-Chk2 (Thr68), Chk2, phospho-H2AX (Ser139), and phospho-p53 (Ser15) were purchased from Cell Signaling Technology. Antibodies against ATM, ATR, Chk1, and PUMA were from Santa Cruz Biotechnology. Antibodies against Topo I, Topo IIα, Topo IIβ, p53, FADD, BAX, Bcl-xL, and Bcl-2 were from BD Biosciences. Antibody to β-actin was purchased from EMD Millipore."}, "[2]": {"type": "in vivo, BALB/c mice", "procedure": "Acute toxicity of 9a in mouse was evaluated pathologically. Sixty 8-week-old male BALB/c mice were randomized into six groups (n=10) to receive 0 (vehicle only), 30, 100, 200, or 300 mg/kg of 9a i.p. on day zero. One group was kept without treatment as a normal control. […] Histopathological evaluations included 1) glycogen deposition, inflammatory cell infiltration, and focal necrosis in liver, 2) regeneration of renal tubule, inflammatory cell infiltration, and chronic progressive nephropathy in kidney, and 3) inflammatory cell infiltration and adenoma in lung. […] Thus, the animals apparently tolerated treatment with 300 mg/kg of 9a, portending an acceptable safety profile.\nSixty 8-week-old male BALB/c mice (National Laboratory Animal Center, Taipei, Taiwan) were used to evaluate single-dose toxicity. Mice were randomly divided into six groups (n=10) and received a single i.p. injection of 9a at 0 (vehicle), 30, 100, 200 or 300 mg/kg on day 0. One group was untreated as normal control. Body weight was measured every three days for fifteen days. On the end of experimental period, all animals were euthanized by CO2 and tissues from liver, lung, kidney and spleen were weighted (data not shown). Tissues were fixed with 10% formalin and embedded in paraffin. Sections 3-5 μm in thickness were prepared for histopathological examination. Hematoxylin and eosin (H&E) stained paraffin sections were evaluated histopathologically according to the guideline described by Shackelford et al.^36 and graded the symptomatic lesions. […] Statistically significant results (P<0.05) were is shown. This study was approved by the Institutional Animal Care and Use Committee (IACUC) of China Medical University (Taichung, Taiwan), and was performed according to the institutional guidelines."}, "Topo I": {"molecular_target": "T1, Topo I (Homo sapiens, UniProt P11387)", "T1 sequence (P11387 1-765)": "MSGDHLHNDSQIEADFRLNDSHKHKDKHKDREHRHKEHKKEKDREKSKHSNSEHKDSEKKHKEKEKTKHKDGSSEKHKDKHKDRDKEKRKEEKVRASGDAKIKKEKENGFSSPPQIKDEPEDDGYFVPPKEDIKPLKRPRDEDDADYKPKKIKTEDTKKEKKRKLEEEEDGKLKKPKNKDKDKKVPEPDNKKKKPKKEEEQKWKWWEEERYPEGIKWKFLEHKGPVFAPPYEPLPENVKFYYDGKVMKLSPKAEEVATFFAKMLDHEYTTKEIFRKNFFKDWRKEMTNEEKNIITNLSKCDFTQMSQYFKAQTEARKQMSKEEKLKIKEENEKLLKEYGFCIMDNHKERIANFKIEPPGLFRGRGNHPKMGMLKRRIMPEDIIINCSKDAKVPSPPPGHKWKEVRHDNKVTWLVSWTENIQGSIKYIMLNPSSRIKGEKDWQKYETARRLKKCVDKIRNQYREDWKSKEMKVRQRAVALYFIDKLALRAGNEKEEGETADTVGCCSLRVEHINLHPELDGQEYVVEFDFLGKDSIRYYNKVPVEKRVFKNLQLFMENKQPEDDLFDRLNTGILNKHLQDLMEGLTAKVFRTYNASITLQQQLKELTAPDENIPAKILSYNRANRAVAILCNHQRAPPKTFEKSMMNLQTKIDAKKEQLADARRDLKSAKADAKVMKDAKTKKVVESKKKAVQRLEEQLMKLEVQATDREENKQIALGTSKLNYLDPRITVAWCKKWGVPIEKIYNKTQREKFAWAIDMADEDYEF", "experiment": "Western blot analysis of Topo I expression", "type": "cell-based", "parameters": "endogenous in cells; host or cells: A-549", "settings": "after 8 h treatment", "from_the_text": "First, we determined the effect of 9a on cell cycle distribution using flow cytometry analysis. […] Because it has been shown that 1-Topo I-DNA covalent complexes enhance the transcription-dependent degradation of Topo I via a 26S proteasome pathway,^32 the effects of 9a on the expression levels of Topo I and Topo II were investigated. […] Compound 9a acts directly on Topo I and results in the accumulation of covalent Topo I-DNA complexes followed by proteasomal Topo I degradation, which is the same effect as 1 and contributes to 9a's cytotoxicity.\nas §1\nAntibodies to caspase-3, caspase-8, caspase-9, PARP, phospho-ATM (Ser1981), ATM, phospho-ATR (Ser428), phospho-Chk1 (Ser345), phospho-Chk2 (Thr68), Chk2, phospho-H2AX (Ser139), and phospho-p53 (Ser15) were purchased from Cell Signaling Technology. […]"}}}
{"smiles": "CC[C@@]1(OC(=O)CNC(Cc2ccc(OC)cc2)=NS(=O)(=O)c2ccc(C)cc2)C(=O)OCc2c1cc1n(c2=O)Cc2cc3ccccc3nc2-1", "note": "[Compound 9a]", "values": [{"measurement": "IC50", "setting": "[1]", "result": "140 ± 18", "unit": "nM"}, {"measurement": "ATM phosphorylation at Ser1981", "setting": "ATM", "result": "underwent phosphorylation at Ser1981 residue"}, {"measurement": "overt toxicity", "setting": "[2]; 300 mg/kg i.p.", "result": "no overt toxicity"}, {"measurement": "acute toxicity (anaphylactic, allergic responses, body weight loss)", "setting": "[2]; single i.p. 30, 100, 200 or 300 mg/kg, male BALB/c mice", "result": "no anaphylactic responses, allergic reactions, or significant body weight loss"}, {"measurement": "histopathological evaluation of liver, spleen, kidney and lung", "setting": "[2]; single i.p. up to 300 mg/kg, male BALB/c mice", "result": "no adverse effects"}, {"measurement": "protein levels of Topo I", "setting": "Topo I", "result": "significantly inhibited protein levels of Topo I"}]}
